From publication PMC7811009, “Oxytocin modulates local topography of human functional connectome in healthy men at rest” (Communications Biology, 2021)

What was measured:
Assay type in all cases: in vivo
[1] = test system: human functional connectome at rest; experiment: Resting-state BOLD-fMRI: mean brain-wide functional connectivity (macroscale); details: repeated measures one-way ANOVA, F(2.271, 34.070) = 0.774, p = 0.484
Experimental: (§1) Each experimental session began with the treatment administration protocol that lasted about 22 min in total (Fig. 8, lower panel). After drug administration, participants were guided to the MRI scanner, where eight pulsed continuous arterial spin labelling scans (each lasting approx. eight minutes) were acquired, spanning 15–104 min post-dosing (data reported elsewhere[11]). The 8-min resting state BOLD-fMRI scan reported herein was obtained at about 57 ± 3.38 min post-dosing. Participants were instructed to lie still and maintain their gaze on a centrally placed fixation cross during scanning. We assessed participants’ levels of alertness (anchors: alert-drowsy) and excitement (anchors: excited-calm) using visual analogue scales (0–100) at three different time-points during the scanning session to evaluate subjective drug effects across time (data reported elsewhere[11]).
(§2) MRI data were acquired on a 3 T MR750 system (GE Healthcare, Waukesha, Wisconsin) with a 32-channel head coil. Functional data was acquired using a shot multi-echo echo planar imaging (EPI) sequence (TR = 2500 ms, TE’s = 12, 28, 44 and 60 ms, FA = 80°, FOV = 240 × 240 mm^2, Matrix = 64 × 64, Slice thickness = 3 mm, 32 continuous descending axial slices, resolution = 3.75 × 3.75 × 3 mm). […] The resting state fMRI scan lasted 8 min 10 s, with collection of a total of 192 volumes for each echo. […]

[2] = test system: human functional connectome at rest; experiment: Resting-state BOLD-fMRI, graph theory: global efficiency (macroscale); 40 IU intranasal (spray/nebuliser) or 10 IU intravenous, about 57 min post-dosing, 16 healthy men; details: repeated measures one-way ANOVA, F (1.932, 28.980) = 0.568, p = 0.567
Experimental: as §1, §2

[3] = test system: human functional connectome at rest; experiment: Resting-state BOLD-fMRI, graph theory: nodal betweenness-centrality (mesoscale); 40 IU intranasal (spray/nebuliser) or 10 IU intravenous, about 57 min post-dosing, 16 healthy men; details: post-hoc paired t-tests, FDR
Experimental: as §1
We used the CONN functional connectivity toolbox[97] to generate brain-wide functional connectivity matrices for each subject/session. […] The default atlas of the CONN toolbox includes 132 non-overlapping ROIs spanning cortical and subcortical areas and the cerebellum using a combination of the cortical and subcortical areas from the FSL Harvard-Oxford atlas and of the cerebellar areas of the Automatic Anatomical Labelling atlas (Supplementary data 1 for a detailed description). […] Finally, we normalized our correlation measures to z-scores using the Fisher’s r-z transform per subject/session.
We then used our z-transformed connectivity matrices to construct brain graphs representing a functional connectivity network for each subject/session. We used an undirected signed weighted approach in which we kept information about the sign and weight of each of the connections between the nodes (ROIs) of our network, without making assumptions about the direction of this relationship. These connectivity matrices represent fully connected networks, where each node corresponds to each of the ROIs we used to build the functional connectivity matrices and each edge represents the z-transformed value of functional connectivity between a pair of nodes. […] We used the fully weighted networks to calculate equi-sparse networks by retaining a fixed percentage (K) of the total amount of possible edges. In order to determine systematic pharmacological effects on the network’s topological organization that are not dependent on the choice of an arbitrary threshold, we chose a range of sparsity thresholds from 5 to 34%, with steps of 1%, based on previous evidence showing the characteristic small-world behaviour of human brain networks is most consistently observed for this range[30]. For each network and sparsity level, we used the MATLAB functions provided with the Brain Connectivity Toolbox[16] to compute four global and regional network metrics: global efficiency, node degree, local efficiency and betweenness-centrality. Details on the calculation of each of these metrics have been described elsewhere. The combination of these four metrics allows us to test for treatment effects on connectivity at both global and regional levels, taking into account complementary aspects of functional integration of information exchange within the brain network. […]
For each of the graph metrics analysed, we summarized the different values over the range of thresholds using the area under the curve (AUC), instead of applying multiple testing for each metric/threshold. […]

CC[C@H](C)[C@@H]1NC(=O)[C@H](Cc2ccc(O)cc2)NC(=O)[C@@H](N)CSSC[C@@H](C(=O)N2CCC[C@H]2C(=O)N[C@@H](CC(C)C)C(=O)NCC(N)=O)NC(=O)[C@H](CC(N)=O)NC(=O)[C@H](CCC(N)=O)NC1=O [oxytocin]
Differences in mean functional connectivity across the four treatment conditions [1]: no significant differences
Differences in global efficiency across the four treatment conditions [2]: no significant differences
Nodes with decreased betweenness-centrality compared to placebo ([3]; intravenous, 10 IU): decreased the betweenness-centrality of the right amygdala and the anterior parahipoccampal gyrus
Nodes with increased betweenness-centrality compared to placebo ([3]; intravenous, 10 IU): increased the betweenness-centrality of the right and left occipital poles, left postcentral gyrus, right supramarginal gyrus and left and right cerebellum (areas 4–5 and area 10, respectively)
Nodes with increased betweenness-centrality compared to placebo ([3]; nebuliser, 40 IU intranasal): increased the betweenness-centrality of the temporo-occipital area of the left middle temporal gyrus and the left cerebellum (area 7)
Nodes with decreased betweenness-centrality compared to placebo ([3]; spray, 40 IU intranasal): decreased the betweenness-centrality of the precuneus, right posterior supramarginal and middle temporal gyri, the left anterior middle temporal gyrus and the right cerebellum (area 9)
Nodes with increased betweenness-centrality compared to placebo ([3]; spray, 40 IU intranasal): increased the betweenness-centrality of the right orbitofrontal cortex, left lateral occipital cortex, right temporal occipital fusiform cortex and left occipital pole
